From BindingDB's records for doi:10.1021/jm00362a020 (1983)

Molecular target: Glycolate oxidase (Sus scrofa)
Assay: In vitro inhibition of porcine Glycolate oxidase

SMILES	IC50 [nM]
O=C(O)C(=O)CC(=O)c1ccc(C2CCCc3ccccc32)cc1 (centres undefined)	2100
CSc1ccc(-c2ccc(C(=O)CC(=O)C(=O)O)cc2)cc1	160
O=C(O)C(=O)CC(=O)c1ccc(-c2ccc(SCC3(O)COc4ccccc4OC3)cc2)cc1	60
O=C(O)C(=O)CC(=O)c1ccc(-n2c(-c3ccccc3)cc3ccccc32)cc1	180

Further lines, results first:

IC50 [nM]	SMILES
1400	CC1=C(C=CC(=O)CC(=O)C(=O)O)C(C)(C)CCC1
400	O=C(O)C(=O)CC(=O)c1ccc(-c2ccc(SCc3ccccc3)cc2)cc1
19000	O=C(C=Cc1ccccc1)CC(=O)C(=O)O
600	CCCCCCCCCc1ccc(C(=O)CC(=O)C(=O)O)cc1
63	O=C(O)C(=O)CC(=O)c1ccc(-c2ccc(Br)cc2)cc1
